In PMC4971072, “Chemically Homogenous Compounds with Antagonistic Properties at All α1-Adrenoceptor Subtypes but not β1-Adrenoceptor Attenuate Adrenaline-Induced Arrhythmia in Rats” (Frontiers in Pharmacology, 2016):
Structures can show the parent of a compound that is named as a salt. Marks after values point to notes of the source that are not given here.

What was measured:
[1] = target: α1-adrenoceptor; assay: α1-adrenoceptor radioligand binding assay ([3H]-prazosin, rat cerebral cortex); details: read-out: Adrenergic receptors Ki α1
[2] = target: T1, α1B-adrenoceptors (Mus musculus, UniProt P97717); assay: Functional bioassay, isolated mouse spleen, noradrenaline contraction; type: biochemical; details: noradrenaline as agonist
T1 construct: The spleen was removed from male mice; from tissue; host or cells: isolated mouse spleen
T1 sequence (P97717 1-514): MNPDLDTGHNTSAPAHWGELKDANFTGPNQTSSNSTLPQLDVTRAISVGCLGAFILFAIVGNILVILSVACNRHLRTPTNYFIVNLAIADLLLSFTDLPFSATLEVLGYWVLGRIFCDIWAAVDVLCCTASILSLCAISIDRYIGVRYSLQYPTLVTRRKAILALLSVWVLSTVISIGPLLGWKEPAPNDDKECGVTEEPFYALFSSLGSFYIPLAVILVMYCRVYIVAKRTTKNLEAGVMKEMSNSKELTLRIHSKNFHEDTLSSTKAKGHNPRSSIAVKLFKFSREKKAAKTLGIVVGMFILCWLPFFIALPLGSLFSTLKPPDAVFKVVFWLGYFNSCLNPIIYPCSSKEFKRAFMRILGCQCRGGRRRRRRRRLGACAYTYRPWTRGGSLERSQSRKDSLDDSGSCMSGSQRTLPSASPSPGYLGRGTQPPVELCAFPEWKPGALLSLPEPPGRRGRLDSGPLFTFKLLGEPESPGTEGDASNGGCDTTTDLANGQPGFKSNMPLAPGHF

[3] = tested on: normal ECG in rats; assay: The effect on normal electrocardiogram in rats; type: in vivo, rat; details: anesthetized rats
Method: The experiment was carried out to exclude the influence of tested compounds on normal ECG. […] The influence on QRS complex, PQ interval, heart rate (RR), and QTc interval was determined.

[4] = tested on: adrenaline-induced arrhythmia in rats; assay: Therapeutic antiarrhythmic activity in adrenaline-induced arrhythmia; type: in vivo, rat; details: i.v. at ED84 at the peak of adrenaline-induced arrhythmia (20 μg/kg)
Method: The ECG was recorded constantly for 5 min as well as in the 10th and 15th min of the experiment.

[5] = tested on: blood pressure in normotensive rats; assay: Influence on blood pressure in normotensive rats; type: in vivo, rat; parameters: Systolic pressure / Diastolic pressure: unit not given beside the values; details: for Diastolic pressure / Systolic pressure: anesthetized normotensive rats
Method: The tested compounds were administered i.p. after 15 min of stabilization period. The compounds were administered at the dose 10 mg/kg.

[6] = i.p. at ED84, 0 min (initial values)
[7] = lowest hypotensive dose i.p., 5 min
[8] = lowest hypotensive dose i.p., 10 min
[9] = lowest hypotensive dose i.p., 20 min
[10] = lowest hypotensive dose i.p., 30 min
[11] = lowest hypotensive dose i.p., 40 min
[12] = lowest hypotensive dose i.p., 50 min
[13] = lowest hypotensive dose i.p., 60 min
[14] = lowest hypotensive dose i.p., Control (before administration)
[15] = normotensive rats, lowest hypotensive dose i.p., period of significant effect

Question: What does the source list for `COc1ccccc1N1CCN(CCCOc2cc(C)cc(C)c2C)CC1` [HBK-19, 1N-[3-(2,3,5-trimethylphenoxy)propyl]-4N-(2-methoxyphenyl)piperazine hydrochloride]?
Answer: Ki [1]: 0.0227 µM; Schild slope ± S.E.M., α1B [2]: 1.06 ± 0.05; Kb ([2]; read-out: pA2 ± S.E.M., α1B (converted)): 0.00851 µM; influence on ECG parameters (PQ interval, QRS complex, QTc interval) ([3]; i.p. at ED84): without the influence on PQ interval, QRS complex, or QTc interval; reduction of heart rate ([3]; i.p. at ED84, over the period of significant effect vs. initial values): 21−22%; Beats/min (ECG) [3, 6]: 355.3 ± 19.7 Beats/min; PQ (ECG) [3, 6]: 56.7 ± 0.7 ms; QRS (ECG) [3, 6]: 35.7 ± 1.0 ms; QT (ECG) [3, 6]: 76.4 ± 8.2 ms; QTc (ECG, Bazett) [3, 6]: 186.9 ± 24.6 ms; Beats/min (ECG) ([3]; i.p. at ED84, 5 min): 349.7 ± 25.3 Beats/min; PQ (ECG) ([3]; i.p. at ED84, 5 min): 56.6 ± 0.0 ms; QRS (ECG) ([3]; i.p. at ED84, 5 min): 34.7 ± 1.6 ms; QT (ECG) ([3]; i.p. at ED84, 5 min): 76.9 ± 1.1 ms; QTc (ECG, Bazett) ([3]; i.p. at ED84, 5 min): 185.5 ± 9.5 ms; Beats/min (ECG) ([3]; i.p. at ED84, 10 min): 339.1 ± 21.0 Beats/min; PQ (ECG) ([3]; i.p. at ED84, 10 min): 56.0 ± 0.0 ms; QRS (ECG) ([3]; i.p. at ED84, 10 min): 34.0 ± 0.3 ms; QT (ECG) ([3]; i.p. at ED84, 10 min): 77.5 ± 0.5 ms; QTc (ECG, Bazett) ([3]; i.p. at ED84, 10 min): 184.2 ± 6.9 ms; Beats/min (ECG) ([3]; i.p. at ED84, 15 min): 280.1 ± 1.1^c Beats/min; PQ (ECG) ([3]; i.p. at ED84, 15 min): 58.2 ± 1.8 ms; QRS (ECG) ([3]; i.p. at ED84, 15 min): 32.0 ± 1.2 ms; QT (ECG) ([3]; i.p. at ED84, 15 min): 82.2 ± 2.2 ms; QTc (ECG, Bazett) ([3]; i.p. at ED84, 15 min): 177.6 ± 4.4 ms; Beats/min (ECG) ([3]; i.p. at ED84, 20 min): 277.2 ± 5.0^c Beats/min; PQ (ECG) ([3]; i.p. at ED84, 20 min): 60.1 ± 1.3 ms; QRS (ECG) ([3]; i.p. at ED84, 20 min): 32.7 ± 0.4 ms; QT (ECG) ([3]; i.p. at ED84, 20 min): 84.3 ± 1.1 ms; QTc (ECG, Bazett) ([3]; i.p. at ED84, 20 min): 181.1 ± 4.1 ms; Beats/min (ECG) ([3]; i.p. at ED84, 30 min): 278.2 ± 6.7^c Beats/min; PQ (ECG) ([3]; i.p. at ED84, 30 min): 60.1 ± 1.7 ms; QRS (ECG) ([3]; i.p. at ED84, 30 min): 34.3 ± 0.2 ms; QT (ECG) ([3]; i.p. at ED84, 30 min): 82.2 ± 0.4 ms; QTc (ECG, Bazett) ([3]; i.p. at ED84, 30 min): 177.0 ± 3.0 ms; Beats/min (ECG) ([3]; i.p. at ED84, 40 min): 332.8 ± 18.9 Beats/min; PQ (ECG) ([3]; i.p. at ED84, 40 min): 59.3 ± 0.7 ms; QRS (ECG) ([3]; i.p. at ED84, 40 min): 32.0 ± 3.1 ms; QT (ECG) ([3]; i.p. at ED84, 40 min): 81.5 ± 2.5 ms; QTc (ECG, Bazett) ([3]; i.p. at ED84, 40 min): 192.2 ± 11.2 ms; Beats/min (ECG) ([3]; i.p. at ED84, 50 min): 396.8 ± 31.8 Beats/min; PQ (ECG) ([3]; i.p. at ED84, 50 min): 55.1 ± 0.3 ms; QRS (ECG) ([3]; i.p. at ED84, 50 min): 36.0 ± 1.5 ms; QT (ECG) ([3]; i.p. at ED84, 50 min): 76.5 ± 0.5 ms; QTc (ECG, Bazett) ([3]; i.p. at ED84, 50 min): 196.2 ± 6.9 ms; Beats/min (ECG) ([3]; i.p. at ED84, 60 min): 398.0 ± 32.4 Beats/min; PQ (ECG) ([3]; i.p. at ED84, 60 min): 56.3 ± 1.1 ms; QRS (ECG) ([3]; i.p. at ED84, 60 min): 30.3 ± 1.1 ms; QT (ECG) ([3]; i.p. at ED84, 60 min): 80.2 ± 0.4 ms; QTc (ECG, Bazett) ([3]; i.p. at ED84, 60 min): 206.3 ± 9.6 ms; therapeutic antiarrhythmic activity (premature ventricular contractions) [4]: restored normal heart rhythm; Diastolic pressure [5, 7]: 94.5 ± 2.6; Systolic pressure [5, 7]: 121.0 ± 4.0^b; Diastolic pressure [5, 8]: 87.5 ± 0.4^c; Systolic pressure [5, 8]: 116.0 ± 3.5^c; Diastolic pressure [5, 9]: 89.0 ± 2.3^b; Systolic pressure [5, 9]: 111.5 ± 3.2^c; Diastolic pressure [5, 10]: 87.0 ± 2.9^c; Systolic pressure [5, 10]: 110.0 ± 2.3^c; Diastolic pressure [5, 11]: 84.5 ± 1.4^c; Systolic pressure [5, 11]: 107.5 ± 3.2^c; Diastolic pressure [5, 12]: 83.5 ± 1.4^c; Systolic pressure [5, 12]: 106.0 ± 3.5^c; Diastolic pressure [5, 13]: 84.0 ± 0.6^c; Systolic pressure [5, 13]: 106.0 ± 4.0^c; Diastolic pressure [5, 14]: 98.0 ± 4.6; Systolic pressure [5, 14]: 127.0 ± 4.0; lowest hypotensive dose ([5]; normotensive rats, lowest dose significantly lowering systolic and diastolic blood pressure): 0.625 mg/kg; reduction of diastolic blood pressure [5, 15]: 9−15%; reduction of systolic blood pressure [5, 15]: 5−17%
